# Assay results: patent US8551958B2, “Galactosylated pro-drugs of non-steroidal anti-inflammatories with improved pharmacokinetic characteristics and reduced toxicity of the starting drug” (Stewart Italia Srl, priority 2008, dated 2013)
# Experiments:
# [1] = Chemical stability of the pro-drug (phosphate buffer pH 7.4; HCl 0.1 N pH 1), HPLC; type: physicochemical; conditions: in the dark; for pH 7.4 T½: phosphate buffer at pH 7.4, 37° C.; for pH 1 T½: solution of HCl 0.1 N (pH 1), 37° C.
# Description: For the stability study, the solutions of pro-drug were prepared by dissolving an aliquot of Ketogal in a phosphate buffer at pH 7.4, or else in a solution of HCl 0.1 N (pH 1), as regards chemical stability, or else in a plasma specimen, for enzymatic stability. The solutions were kept in the dark, at a temperature of 37° C., for 24 hours. After each hour an aliquot of specimen was taken. In the case of plasma, said aliquot was previously extracted with acetonitrile (1:2), “vortexed” and centrifuged at 3000 r.p.m. for 10 min. The supernatant was taken and used for analysis at HPLC with diode detector. The half-lives for chemical stability and enzymatic stability were calculated by quantizing, in time, the percentage of pro-drug that remained in solution. For the chromatographic separations, a 1090L HPLC (Hewlett-Packard, Palo Alto, USA) was used, coupled to a diode detector HP 1040A. A Phenomenex Luna C18 (250×4.6 mm, 5 μm) column was used. The wavelength used was 313 nm. The mobile phase was constituted by acetonitrile and an aqueous solution of phosphoric acid […] (pH 3) in the ratio of 68:32. The flow was 1 mL/min, with an injection volume of 20 μl. All the reagents and the solvents used were of analytical degree. The distilled and deionized water was purified by means of a Milli Q system (Millipore). The retention times of the compounds were: ketorolac: 6.7 min; Ketogal: 3.8 min. As internal standard tolmetin was used (9.3 min). The straight line of calibration for quantification of the compounds was constructed using standard solutions with concentrations of between 0.1 and 100 μg/ml. The linearity was obtained with a coefficient of regression (R^2) of approximately 0.998.
# For the study of the stability, the solutions of pro-drug were prepared by dissolving an aliquot of Flugal in a phosphate buffer at pH 7.4, as regards chemical stability, or else in a plasma specimen, for enzymatic stability. The solutions were kept in the dark, at a temperature of 37° C., for 24 hours. After each hour an aliquot of specimen was taken. In the case of the plasma said amount was previously extracted with acetonitrile (1:2), “vortexed”, and centrifuged at 3000 r.p.m. for 10 min. The supernatant was taken and used for analysis at HPLC with diode detector. The half-lives for the chemical stability and enzymatic stability were calculated by quantizing, in time, the percentage of pro-drug that remained in solution. A 1090L HPLC (Hewlett-Packard, Palo Alto, USA) coupled to a diode detector HP 1040A was used for the chromatographic separations. The column used was a Supelcosil LC-18, 250×4.6 mm, particle size […]. The volume injected was […] and the flow of 1 mL/min. The mobile phase was constituted by a mixture of aqueous CH3CN/H3PO4 1 mM (pH 3) [32:68]. For the quantitative determination reading was made at 250 nm. The retention times of the various compounds involved in the analysis were: for Flugal 6 min and for flurbiprofen 11 min. All the reagents and the solvents used were of analytical degree. The distilled and deionized water was purified by means of a Milli Q system (Millipore). The straight line of calibration for the quantification of the compounds was constructed using standard solutions with concentrations of between 0.1 and 100 μg/ml. Linearity was obtained with a coefficient of regression (R^2) of approximately 0.998. From the results of said analysis (illustrated in Table 3) it emerges that the pro-drug Flugal has a good chemical stability and a good susceptibility to enzymatic hydrolysis.
# Chemical stability was assessed also at pH 1.0 in a solution of HCl 0.1N as described.
# For the stability study, the solutions of pro-drug were prepared by dissolving an aliquot of Okigal in a phosphate buffer at pH 7.4, or else in a solution of HCl 0.1 N (pH 1), as regards chemical stability, or else in a plasma specimen, for enzymatic stability. The solutions were kept in the dark, at a temperature of 37° C., for 24 hours. […]
# [2] = Enzymatic stability in plasma, HPLC; type: in vitro ADME; conditions: plasma specimen, 37° C., in the dark; read-out: Plasma T½ (converted)
# Description: For the stability study, the solutions of pro-drug were prepared by dissolving an aliquot of Ketogal in a phosphate buffer at pH 7.4, or else in a solution of HCl 0.1 N (pH 1), as regards chemical stability, or else in a plasma specimen, for enzymatic stability. The solutions were kept in the dark, at a temperature of 37° C., for 24 hours. After each hour an aliquot of specimen was taken. In the case of plasma, said aliquot was previously extracted with acetonitrile (1:2), “vortexed” and centrifuged at 3000 r.p.m. for 10 min. The supernatant was taken and used for analysis at HPLC with diode detector. The half-lives for chemical stability and enzymatic stability were calculated by quantizing, in time, the percentage of pro-drug that remained in solution. For the chromatographic separations, a 1090L HPLC (Hewlett-Packard, Palo Alto, USA) was used, coupled to a diode detector HP 1040A. A Phenomenex Luna C18 (250×4.6 mm, 5 μm) column was used. The wavelength used was 313 nm. The mobile phase was constituted by acetonitrile and an aqueous solution of phosphoric acid […] (pH 3) in the ratio of 68:32. The flow was 1 mL/min, with an injection volume of 20 μl. All the reagents and the solvents used were of analytical degree. The distilled and deionized water was purified by means of a Milli Q system (Millipore). […] The straight line of calibration for quantification of the compounds was constructed using standard solutions with concentrations of between 0.1 and 100 μg/ml. […]
# For the study of the stability, the solutions of pro-drug were prepared by dissolving an aliquot of Flugal in a phosphate buffer at pH 7.4, as regards chemical stability, or else in a plasma specimen, for enzymatic stability. […] The half-lives for the chemical stability and enzymatic stability were calculated by quantizing, in time, the percentage of pro-drug that remained in solution. […] For the quantitative determination reading was made at 250 nm. […] The straight line of calibration for the quantification of the compounds was constructed using standard solutions with concentrations of between 0.1 and 100 μg/ml. […]
# [3] = tested on: mouse carrageenan paw oedema; experiment: Carrageenan oedema test; type: in vivo, mice; conditions: for Carrageenan-induced oedema, first phase (0-6 h): pro-drug 16.3 mg/kg oral; for Oedema formation after parent drug: 10 mg/kg oral
# Description: Anti-inflammatory activity was tested by means of the carrageenan oedema test. The mice were divided into groups of six. The initial volumes of the leg of all the animals were measured using a plethysmometer. The oedema is induced in the leg by means of sub-plantar injection of 50 μl of saline solution containing 1% of carrageenan. The volume of the leg was measured at different time intervals. Said experimental model consists of two phases: a first, acute, phase lasting 6 hours and a second, chronic, phase, up to 72 hours.
# The anti-inflammatory activity of the physical mixture of ketorolac and galactose was evaluated with the carrageenan induced mice hind paw edema assay, as described for ketogal. […]
# The carrageenan induced mice hind paw oedema assay described by D'Agostino et al. (2007) was used to evaluate the acute anti-inflammatory activity of the conjugate. Mice were divided into control and test groups of six animals each. Initial paw volumes of all animals were measured using a plethysmometer apparatus (Ugo Basile, Milan, Italy) before treatment. Paw oedema was induced by a subplantar injection of 50 μL of saline containing 1% λ-carrageenan into the right hind paw. […] free acid and ketogal were orally administrated 1 h before carrageenan challenge. Paw volume was measured at different time intervals by plethysmometer. The increase in paw volume was evaluated as the difference between the paw volume measured at each time point and the basal paw volume measured immediately before carrageenan injection.
# mice = experiment: Ulcerogenicity studies, flurbiprofen and flugal (NSAID-induced gastric damage in mice); type: in vivo; conditions: oral, after 4 h; for gastric lesion score / n. of ulcers: flurbiprofen 10 mg/kg, flugal 16.6 mg/kg (table); for n. of ulcers: fasted mice
# Description: NSAID-induced gastric damage in mice was evaluated following the procedure described by Chan et al. (1995). […] After 4 h of treatment, mice were euthanized and the stomach was excised along its greater curvature and rinsed with normal saline. The mucosa was then examined by means of a magnifying glass for the presence of irritation or frank hemorrhagic lesions (ulcers). Irritation was assigned a score of 1, and ulcerations were scored according to their length (a score of 5 for lesions with a length between 1 and 3 mm; a score of 10 for lesions greater than 3 mm). The sum of total scores was used for comparison.
# [4] = tested on: mouse carrageenan paw oedema; experiment: Carrageenan oedema test; type: in vivo, mice; conditions: pro-drug 16.3 mg/kg oral, 1 h before carrageenan
# male Swiss mice [5] = experiment: Ulcerogenicity studies, ketorolac and Ketogal (gastric lesions); type: in vivo; conditions: oral, ketorolac 10.0 mg/kg, Ketogal 16.3 mg/kg, after 4 hours
# Description: The gastric lesions were evaluated in male Swiss mice. To the fasted animals (16-18 h) were administered, by oral route, ketorolac (10 mg/kg), Ketogal (16.3 mg/kg), or the vehicle. After 4 hours, the mice were sacrificed and the stomach removed, cut along the major curvature, washed with physiological solution, and the mucous was examined for evaluation of the presence of petechias and/or gastric lesions. A “score” of 1 was assigned to the petechias, and a “score” based on the diameter (a “score” of 5 for lesions of a diameter of less than 1 mm; a “score” of 10 for lesions with a diameter of more than 1 mm) was, instead, assigned to the lesions.
# PGE synthase = experiment: Western blot, stomach, PGE synthase protein expression; type: in vivo, mice; conditions: ketorolac 10 mg/Kg, ketogal 16.3 mg/Kg, oral, 3, 5 and 7 days
# Description: (§1) Animals were sacrificed and then liver, stomach and kidney were collected in glass tubes and analysed histologically and biochemically.
# PPAR-gamma = experiment: Western blot, stomach, PPAR-gamma protein expression; type: in vivo, mice; conditions: ketorolac 10 mg/Kg, ketogal 16.3 mg/Kg, oral, 3, 5 and 7 days
# Description: as §1
# male Swiss mice [6] = experiment: Chronic and sub-chronic experiments: liver, kidney and stomach examination; type: in vivo; conditions: ketorolac 10 mg/Kg, ketogal 16.3 mg/Kg, oral
# Description: as §1
# Liver samples were fixed in 10% buffered formalin and embedded in paraffin, sliced, and stained with hematoxylin & eosin (H&E) for assessment of liver pathology. […] To confirm histological data, western blot analysis for TNF-alpha, IL-6 and malonyldialdehyde assay were then performed in liver lysates.
# COX-1 = experiment: Western blot, stomach, COX-1 protein expression; type: in vivo, mice; conditions: ketorolac 10 mg/Kg, ketogal 16.3 mg/Kg, oral, 3, 5 and 7 days; versus control stomachs
# Description: as §1
# [7] = tested on: writhing induced by magnesium sulphate; experiment: Writhing induced by magnesium sulphate (visceral pain); type: in vivo, mouse; conditions: ketorolac 0.01 to 10 mg/kg, Ketogal in equimolar dose; 1 hour before magnesium sulphate 120 mg/kg
# Description: In order to determine whether ketorolac and Ketogal are able to inhibit visceral pain, the effects of these compounds on “writhing” induced by magnesium sulphate were tested. Magnesium sulphate induces a reversible response when injected by intraperitoneal route in the mouse. The administration of 120 mg/kg of magnesium sulphate induces an average of 6±0.9 episodes of “writhing” in the mouse (n=6).
# [8] = tested on: writhing induced by acetic acid; experiment: Writhing test induced by acetic acid; type: in vivo, mice; conditions: 60 min prior to acetic acid
# Description: The analgesic activity was studied using the “writhing test” using acetic acid and using magnesium sulphate. To the mice there was administered by intraperitoneal route 1 mL of solution at 1% of acetic acid, and the number of writhing events was evaluated for 20 min, after 5 min from administration of the solution of acetic acid. Writhing is defined as a contraction of the abdominal muscles accompanied by elongation of the body and of the rear legs. Ketorolac and Ketogal were administered by oral route 60 min prior to administration of the solution of acetic acid. The analgesic effect is expressed in number of writhing events as compared to the control.
Compound,pH 7.4 T½ [1] [hours],pH 1 T½ [1] [hours],half-life [2] [h],"Carrageenan-induced oedema, first phase (0-6 h) ([3]; 1 h before carrageenan)",gastric lesion score (mice),n. of ulcers (mice),"Carrageenan-induced oedema, second phase (24-96 h) [4]",Oedema formation after parent drug ([3]; 1 h before carrageenan),other results
"CC(C(=O)OCC1O[C@H](O)C(O)[C@@H](O)[C@H]1O)c1ccc(-c2ccccc2)c(F)c1 (stereo partly drawn) [Flugal, flurbiprofen-D-galactos-6′-yl ester]",>8,>8,1,did not modify carrageenan-induced oedema,0,1 ± 1,significant anti-inflammatory effect,,Ulcerogenic activity (in words) (mice; flugal 16.3 mg/kg): caused only irritation without ulceration
"CC(C(=O)O)c1cccc(C(=O)c2ccccc2)c1 (centres unmarked) [Ketoprofen, ketoprofen, reference compound]",,,,,,,,significantly inhibited oedema formation until 48 h,
"CC(C(=O)OCC1O[C@H](O)C(O)C(O)[C@H]1O)c1cccc(C(=O)c2ccccc2)c1 (stereo partly drawn) [Okigal, Ketoprofen-D-galactos-6′-yl ester]",>8,>8,4,slightly modify carrageenan-induced oedema,,,significant anti-inflammatory effect,,
"CC(C(=O)O)c1ccc(-c2ccccc2)c(F)c1 (centres unmarked) [flurbiprofen, reference compound]",,,,,2,3 ± 1.5,,significantly inhibited oedema formation until 48 h,
"O=C[C@H](O)[C@@H](O)[C@@H](O)[C@H](O)CO [galactose, reference compound]",,,,,,,,,"Anti-inflammatory activity of galactose alone ([3]; galactose 16.3 mg/kg oral, 1 h before carrageenan): no anti-inflammatory activity"
"O=C(c1ccccc1)c1ccc2n1CC[C@@H]2C(=O)O [ketorolac, reference compound]",,,,,,,,,"Degree of ulcerogenicity (male Swiss mice [5]; score 1 petechias, 5 or 10 lesions): 10; Number of ulcers (male Swiss mice [5]; fasted mice): 4 ± 0.4; Gastric PGE synthase protein expression (PGE synthase): significantly reduced; Gastric PPAR-gamma protein expression (PPAR-gamma): significantly reduced; Kidney histology (male Swiss mice [6]; after 3, 5 and 7 days): normal kidney histology; Stomach samples, ulcerogenicity (male Swiss mice [6]; for 3 days): high ulcerogenicity degree; Gastric COX-1 protein expression (COX-1): significantly inhibited; Inhibition of writhing induced by magnesium sulphate [7]: able to inhibit this response in a dose-dependent way; Formation of oedema, first phase, lowest dose ([3]; ketorolac 0.1 mg/kg oral, first phase): had no effect; Dosages with significant analgesic effect (p<0.01) ([8]; ketorolac by oral route): significant at the dosages of 1 and 10 mg/kg; Analgesic effect (number of writhing events compared to control) ([8]; oral, ketorolac 0.01-10 mg/kg, Ketogal 0.0163-16.3 mg/kg): dose-dependent analgesic effect"
